Patent publication US7183067B2 (priority 2002, dated 2007)

Tests used:
BSA = biological target: T1, BSA (Bos taurus, UniProt P02769); assay: SPR measurement of ligand-introduced chip with BSA; assay type: binding, bovine
T1 construct: purchased SIGMA
Procedure: (§1) PBS solutions containing proteins of various concentrations were flown onto the ligand-introduced chip obtained in (5-1) by 60 μL at a flow rate of 20 μL/min so as to observe the binding and dissociating behavior of the ligand-introduced chip with each protein by an SPR measurement.
(§2) The following proteins were used. • BSA (SIGMA ALUBMUN, BOVINE) • Concanavalin A (SEIKAGAKU KOGYO) • Pea Lectin (SEIKAGAKU KOGYO) • Peanut Lectin (SEIKAGAKU KOGYO) • RCA120 (SEIKAGAKU KOGYO)
(§3) Moreover, Con A of various concentrations was acted on the ligand-introduced chip so as to conduct an SPR measurement on an interaction. Also, an SPR measurement was also conducted on an interaction with BSA and PSA so as to observe a resonant angle change.
(§4) Further, ligand-introduced chips were produced which includes 4-Mal and 4-Glc of the present invention and 2-Mal and 2-Glc serving as a comparative example immobilized thereon. Con A, BSA, PSA, RCA120, and PNA solutions of various concentrations were flown onto the ligand-introduced chips so as to observe a resonant angle change by an SPR measurement.

Pea Lectin (PSA) = biological target: T2, Pea Lectin (PSA) (Pisum sativum, UniProt P02867); assay: SPR measurement of ligand-introduced chip with PSA; assay type: binding
T2 construct: purchased SEIKAGAKU KOGYO
T2 sequence (P02867 31-211 limits assumed): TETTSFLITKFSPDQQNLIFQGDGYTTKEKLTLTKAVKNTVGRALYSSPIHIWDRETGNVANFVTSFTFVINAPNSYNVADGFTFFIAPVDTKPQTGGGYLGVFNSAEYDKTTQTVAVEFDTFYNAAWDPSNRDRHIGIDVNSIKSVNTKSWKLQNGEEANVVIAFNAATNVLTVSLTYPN
T2 sequence (P02867 218-269 limits assumed): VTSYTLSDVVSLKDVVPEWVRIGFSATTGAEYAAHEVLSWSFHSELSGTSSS
Procedure: as §1, §2, §3, §4

neutroavidin = biological target: T3, neutroavidin (Gallus gallus, UniProt P02701); assay: Immobilization of ligand onto neutroavidin-immobilized SPR sensor chip; assay type: binding; details: ligand solutions flown until no further increase
T3 construct: purchased PIERCE CA47105
T3 sequence (P02701 25-152): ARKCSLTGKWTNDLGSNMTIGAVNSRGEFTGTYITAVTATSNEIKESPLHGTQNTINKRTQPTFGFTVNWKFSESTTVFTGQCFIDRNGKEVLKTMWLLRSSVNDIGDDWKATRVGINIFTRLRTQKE
Procedure: The ligand-introduced chip was obtained by the following procedure. In the beginning, a sensor chip (manufactured by Japan Laser Electronics Co., Ltd.), prepared by depositing a gold thin film of 50 nm thick on a glass substrate of 13 mm×20 mm×0.7 mm, was placed in a UV ozone cleaner (product name: NL-UV253, Japan Laser Electronics Co., Ltd.) and was exposed to ultraviolet rays for 20 minutes so as to wash the surface of the sensor chip with ozone. Next, the sensor chip was immersed in a 4,4′-methanol dithiobutyrate solution (100 μM) in a Petri dish and gently shaken for 30 minutes at room temperature (product name: Bio Dancer, New Brunswick Scientific Co., Ltd.). 4-thiobutyric acid was immobilized onto the chip through a gold-sulfur bond. The chip was washed three times with ethanol. […] A surface plasmon resonant angle change then observed was monitored. […]
Next, 4.9 μM, 16.3 μM, and 49 μM 4-Mal solutions were flown onto (S) by 60 μL at a flow rate of 10 μL/min for immobilization; 0.49 μM and 4.9 μM 4-Glc solutions were flown onto (R) by 60 μL at a flow rate of 10 μL/min for immobilization. […] A resonant angle change quantity between a point of time when the resonant angle change had become constant and a point of time before the immobilization was defined as a immobilization quantity. […] In this sensorgram, the immobilization quantity of 4-Mal was 220 RU and that of 4-Gcl was 220 RU. […]

concanavalin A (Con A) [1] = biological target: T4, concanavalin A (Con A) (Canavalia ensiformis, UniProt P02866); assay: Affinity chromatography on 4-Mal affinity column, SDS-PAGE of fractions: Con A; assay type: binding; details: mixed solution of Con A, PSA and BSA in PBS; elution with PBS, glucose, NaOH
T4 construct: purchased SEIKAGAKU KOGYO
Procedure: Following a general producing method of an affinity column, an affinity column including the ligand 4-Mal, obtained in Example 4, immobilized thereto. As a column carrier, Hitrap NHS-activated Hp (column volume 1 mL; manufactured by Amersham Co., Ltd.) was used. The column carrier, including a gel matrix and N-hydroxysuccinimide serving as an active group immobilized thereon through a spacer ([…] NHS group per 1 mL gel), is suitable to immobilizing onto a carrier a compound having an amino group. FIG. 6 is a schematic diagram showing the steps for preparation of an affinity column. […]
Absorbance of the fractions collected by the affinity chromatography in (6-2) was measured at a wavelength of 280 nm using an ultraviolet spectrometer. […]
The fractions (1 mL) so collected were freeze-dried and then mixed with the ion exchanged water (100 μL) so as to dissolve the fractions again. […] A ready-made gel (ATTO PAGEL-Compact AE-6000 (containing SDS 12.5%)) was set in an electrophoretic cell filled with the electrophoresis buffer solution. […]
Specifically, 12.5% acrylamide gel (ATTO PAGEL-Compact AE-6000) was used to perform SDS-PAGE, and Coomassie brilliant blue was used for dyeing, the result of which is shown in FIG. 8. […] In the Mix-3 fraction, BSA and PSA bands disappeared and only Con A band was detected. […]

concanavalin A (Con A) [2] = biological target: T4, concanavalin A (Con A); assay: biochemical; assay type: binding
[3] = 1.0 μM Con A, Mal ligand chip against Glc ligand chip (2-channel), PBS pH 7.4, 25° C.

| Structure (SMILES) | specific interaction with BSA by SPR (BSA) | specific interaction with PSA by SPR (Pea Lectin (PSA)) | ligand immobilization quantity (resonant angle change) (neutroavidin) [RU] | retention of Con A on affinity column (concanavalin A (Con A) [1]) | binding of Con A to ligand by SPR (concanavalin A (Con A) [2]) | KD (kd/ka): dissociation constant (concanavalin A (Con A) [2]; [3]) [nM] | kd: dissociation velocity constant (concanavalin A (Con A) [2]; [3]) [s^−1 × 10^−2] | Kd (concanavalin A (Con A) [2]) [nM] | kon (concanavalin A (Con A) [2]; 1.0 μM Con A, Mal ligand chip against Glc ligand chip (2-channel), PBS pH 7.4, 25° C., read-out: ka: binding velocity constant) [M⁻¹ s⁻¹] |
| --- | --- | --- | --- | --- | --- | --- | --- | --- | --- |
| O=C(CCN(CCC(=O)NCCN(CCC(=O)Nc1cccc(NCC(O)C(O)C(OC2OC(CO)C(O)C(O)C2O)C(O)CO)c1)CCC(=O)Nc1cccc(NCC(O)C(O)C(OC2OC(CO)C(O)C(O)C2O)C(O)CO)c1)C(=O)CCCCC1SCC2NC(=O)NC21)NCCN(CCC(=O)Nc1cccc(NCC(O)C(O)C(OC2OC(CO)C(O)C(O)C2O)C(O)CO)c1)CCC(=O)Nc1cccc(NCC(O)C(O)C(OC2OC(CO)C(O)C(O)C2O)C(O)CO)c1 (stereo not shown) [Compound 4-Mal] | do not specifically interact | do not specifically interact | 220 | A majority of Con A was retained | firmly binds | 590 ± 60 | 0.72 ± 0.021 | – | – |
| O=C1N[C@H]2[C@H](CS[C@H]2CCCCC(=O)N(CCNC(=O)c2ccc(NC[C@H](O)[C@@H](O)[C@H](O[C@H]3O[C@H](CO)[C@@H](O)[C@H](O)[C@H]3O)[C@H](O)CO)cc2)CCNC(=O)c2ccc(NC[C@H](O)[C@@H](O)[C@H](O[C@H]3O[C@H](CO)[C@@H](O)[C@H](O)[C@H]3O)[C@H](O)CO)cc2)N1 [Compound 2-Mal, reference compound] | – | – | – | – | – | – | 1.4 ± 0.86 | 960 ± 50 | 15000 ± 8600 |
